Measurements from PMC11350758, “Development of Xanthoangelol-Derived Compounds with Membrane-Disrupting Effects against Gram-Positive Bacteria” (Antibiotics, 2024).
Values after ≈ are worked out from the molar mass of the structure shown. Where two headings read alike, the source gives them in different places.

How the values were obtained:
[1] = test system: S. aureus ATCC43300 biofilm formation; conditions: 4 μg/mL
Experimental: Bacterial biofilms created by the aggregation of bacteria is considered as one of the main reasons for the development of drug resistance. […] Subsequently, we further assessed the efficiency of 9h to eradicate the preformed biofilm. Matured S. aureus biofilm (grown for 24 h) was treated with compound 9h, and the rate of biofilm disruption was then assessed by the crystal violet staining assay.
Biofilm inhibition assay: S. aureus ATCC43300 was cultured (37 °C, 200 rpm) in MHB broth for 5 h and diluted to 1 × 10^6 CFU/mL. […] The planktonic supernatant cells were discarded and washed with PBS three times. Then, methanol (150 µL) was added to each well for 30 min. After discarding methanol, 0.1% crystal violet solution (150 µL) was added, and biofilms were stained for 15 min. Next, crystal violet solution was removed and washed with PBS three times. Finally, ethanol (150 µL) was pipetted into the wells, and the OD values were measured at 575 nm. The biofilm inhibition (%) = (ODcompound − ODblank)/(ODpositive control − ODblank) × 100%.

[2] = test system: Acinetobacter baumannii ATCC19606; test: MIC, broth microdilution; assay type: cell-based; conditions: Acinetobacter baumannii, ATCC19606, read-out: MIC A. b. 19606
Experimental: (§1) All target derivatives were assessed for their in vitro antibacterial activities using a broth microdilution assay to test their minimum inhibitory concentrations (MICs) against six Gram-positive strains (S. aureus ATCC31007, S. aureus ATCC25923, S. aureus ATCC43300, E. faecalis ATCC29212, B. subtilis ATCC9372, and S. epidermidis ATCC12228) and four Gram-negative strains (A. baumannii ATCC19606, K. pneumonia ATCC10031, E. coli ATCC25922, and P. aeruginosa ATCC27853). These compounds were also evaluated for their hemolytic activities and membrane selectivity by determining their HC50 (the concentration required to lyse 50% of red blood cells) and SI (HC50/MICs) values, respectively, and vancomycin was used as the positive drug.
(§2) MICs of the derivatives were determined by the micro broth dilution method according to the American Clinical and Laboratory Standards Institute (CLSI) standards. Briefly, 2-fold serial dilutions of target compounds were prepared in 96-well plates containing TSB broth. An equal volume of bacterial suspension (10^6 CFU/mL) was then pipetted into each well, and the mixture was incubated at 37 °C for 24 h. […] All biological experiments were repeated three times.

[3] = test system: Bacillus subtilis ATCC9372, penicillin-susceptible strain; test: MIC, broth microdilution; assay type: cell-based; conditions: Bacillus subtilis, ATCC9372, read-out: MIC B. s. 9372
Experimental: as §1, §2

[4] = test system: Enterococcus faecalis ATCC29212, vancomycin-susceptible strain; test: MIC, broth microdilution; assay type: cell-based; conditions: Enterococcus faecalis, ATCC29212, read-out: MIC E. f. 29212
Experimental: as §1, §2

[5] = test system: Escherichia coli ATCC25922, penicillin-susceptible strain; test: MIC, broth microdilution; assay type: cell-based; conditions: Escherichia coli, ATCC25922, read-out: MIC E. c. 25922
Experimental: as §1, §2

[6] = test system: Klebsiella pneumonia ATCC10031; test: MIC, broth microdilution; assay type: cell-based; conditions: Klebsiella pneumoniae, ATCC10031, read-out: MIC K. p. 10031
Experimental: as §1, §2

[7] = test system: Pseudomonas aeruginosa ATCC27853; test: MIC, broth microdilution; assay type: cell-based; conditions: Pseudomonas aeruginosa, ATCC27853, read-out: MIC P. a. 27853
Experimental: as §1, §2

[8] = test system: Staphylococcus aureus ATCC25923, erythromycin-susceptible strain; test: MIC, broth microdilution; assay type: cell-based; conditions: Staphylococcus aureus, ATCC25923, read-out: MIC S. a. 25923
Experimental: as §1, §2

[9] = test system: Staphylococcus aureus ATCC31007, penicillin-resistant strain; test: MIC, broth microdilution; assay type: cell-based; conditions: Staphylococcus aureus, ATCC31007, read-out: MIC S. a. 31007
Experimental: as §1, §2

[10] = test system: Staphylococcus epidermidis ATCC12228, erythromycin-susceptible strain; test: MIC, broth microdilution; assay type: cell-based; conditions: Staphylococcus epidermidis, ATCC12228, read-out: MIC S. e. 12228
Experimental: as §1, §2

[11] = test system: Staphylococcus aureus ATCC43300, methicillin-resistant strain; test: microbe, parasite or virus in culture; assay type: cell-based; conditions: for MIC: ATCC 43300 / MRSA, read-out: MIC S. a 43300
Experimental: as §1, §2

[12] = test system: Enterococcus faecalis ATCC51299, vancomycin-resistant strain; test: MIC, broth microdilution; assay type: cell-based; conditions: Enterococcus faecalis, ATCC51299, read-out: MIC E. f. 51299
Experimental: as §2

[13] = test system: Enterococcus faecium ATCC51559, vancomycin-resistant strain; test: MIC, broth microdilution; assay type: cell-based; conditions: Enterococcus faecium, ATCC51559, read-out: MIC E. f. 51559
Experimental: as §2

S. aureus ATCC4330 = test: microbe, parasite or virus in culture; assay type: cell-based; conditions: control compounds of the ROS assay
Experimental: Due to the presence of various biological enzymes in plasma, natural AMPs are susceptible to enzymatic degradation upon entering the bloods, leading to a loss of their antimicrobial activity. To evaluate the plasma stability of active compound 9h, we conducted a stability assay by determining their MBC (minimum bactericidal concentration) values in plasma and different blood components. […] The observed initial increase in the MBC value, followed by remaining unchanged, could potentially be attributed to the initial binding of compound 9h with plasma proteins, causing a reduction in its activity. Once this binding became saturated, the bactericidal activity of the compound remained stable, further indicating the good stability of compound 9h in plasma.
MBCs of the compounds were tested. Furthermore, MBCs of compounds in 50% plasma, 50% serum, and 50% blood suspension were tested. The MBC value is defined as the concentration at which the colony count is less than 5 after 18 h of incubation at 37 °C. All biological experiments were repeated three times.

S. aureus ATCC43300 [14] = test: ROS assay (DCFH-DA); assay type: cell-based; conditions: control compounds
Experimental: It is known that the disruption of bacterial cell membranes often causes the production of ROS in bacterial cells. The fluorescent probe DCFH-DA was used to monitor the level of intracellular ROS produced by S. aureus ATCC43300. DCFH-DA is initially non-fluorescent; however, it undergoes hydrolysis to DCFH upon entry into the cell. Subsequently, DCFH is converted to the fluorescent compound DCF when ROS are produced in the cells. […] The fluorescence intensity of 9h was about 8-fold higher than the PBS-treated group when the concentration of 9h increased 16 μg/mL.
Mid-log S. aureus ATCC43300 was collected and resuspended in PBS. Bacteria suspension (1.0 × 10^8 CFU/mL) was placed into a 96-well plate, and an equal volume of DCF-DA (10.0 μM) was mixed and incubated at 37 °C for 30 min. After incubation, the suspension was centrifuged (3500 rpm, 4 min), and the supernatant was removed and resuspended in PBS. […] The fluorescence intensity of each well was recorded by a microplate reader (Ex = 488 nm and Em = 530 nm). All biological experiments were repeated three times.

S. aureus ATCC43300 [15] = test: DNA leakage study; assay type: cell-based; conditions: control compound
Experimental: The destruction of bacterial cell membranes usually causes the leakage of macromolecules, including DNA and proteins. To investigate the effect of the compound 9h on the leakage of cytoplasmic contents, we performed DNA and protein leakage assays against S. aureus ATCC43300. The degree of damage to the bacterial cell membrane could be reflected by the concentrations of DNA and protein. The non-membrane-targeted antibiotic ciprofloxacin, membrane-targeted peptide melittin, and PBS were used as controls. […] A similar result were also observed in the leakage of protein with S. aureus (Figure 8C).
Mid-log S. aureus ATCC43300 was collected and resuspended in PBS (1.0 × 10^8 CFU/mL). […] The concentration of the protein was determined according to the method of the BCA assay kit (Thermo Fisher Scientific, Waltham, MA, USA), and the concentration of DNA in the supernatant was tested by a micro-spectrophotometer. All biological experiments were repeated three times.

S. aureus ATCC43300 [16] = test: Resistance development assay (serial passage); assay type: cell-based; conditions: at the 19th passage
Experimental: The rapid increase in bacterial resistance to antibiotics is a major challenge in clinical treatment, and in order to assess the drug resistance development for compound 9h, we performed a drug resistance assay against S. aureus ATCC43300. Norfloxacin was selected as the positive control. The S. aureus cells were incubated with sub-MIC (1/2 MIC) concentration of compound 9h and were serially passaged for a duration of 20 days.
Resistance was defined as a more than 4-fold increase in the tested compound in MIC when compared to the beginning value. Briefly, S. aureus ATCC43300 was cultured (37 °C, 200 rpm) in MHB broth for 5 h and diluted to 1 × 10^6 CFU/mL. Then, the bacteria were cultured with compound 9h at a sub-MIC concentration (1/2 MIC) for 18 h. The MICs were determined according to this method for consecutive 20 days. All biological experiments were repeated three times.

[17] = Staphylococcus aureus ATCC43300 (MRSA)

With `CC[C@H](C)[C@H](NC(=O)[C@H](CCCCN)NC(=O)[C@H](CCC(=O)O)NC(=O)[C@H](CCCCN)NC(=O)[C@H](CO)NC(=O)[C@H](CCCCN)NC(=O)[C@H](CCCNC(=N)N)NC(=O)[C@H](Cc1ccccc1)NC(=O)[C@H](Cc1ccccc1)NC(=O)[C@H](CC(=O)O)NC(=O)CNC(=O)[C@H](CC(C)C)NC(=O)[C@@H](N)CC(C)C)C(=O)NCC(=O)N[C@@H](CCCCN)C(=O)N[C@@H](CCC(=O)O)C(=O)N[C@@H](Cc1ccccc1)C(=O)N[C@@H](CCCCN)C(=O)N[C@@H](CCCNC(=N)N)C(=O)N[C@H](C(=O)N[C@H](C(=O)N[C@@H](CCC(N)=O)C(=O)N[C@@H](CCCNC(=N)N)C(=O)N[C@H](C(=O)N[C@@H](CCCCN)C(=O)N[C@@H](CC(=O)O)C(=O)N[C@@H](Cc1ccccc1)C(=O)N[C@@H](CC(C)C)C(=O)N[C@@H](CCCNC(=N)N)C(=O)N[C@@H](CC(N)=O)C(=O)N[C@@H](CC(C)C)C(=O)N[C@H](C(=O)N1CCC[C@H]1C(=O)N[C@@H](CCCNC(=N)N)C(=O)N[C@H](C(=O)N[C@@H](CCC(=O)O)C(=O)N[C@@H](CO)C(=O)O)[C@@H](C)O)C(C)C)[C@@H](C)CC)C(C)C)[C@@H](C)CC` [LL-37, reference compound] the “inhibition of S. aureus biofilm formation” value [1] was 55.41%.

`CN[C@H](CC(C)C)C(=O)N[C@H]1C(=O)N[C@@H](CC(N)=O)C(=O)N[C@H]2C(=O)N[C@H]3C(=O)N[C@H](C(=O)N[C@H](C(=O)O)c4cc(O)cc(O)c4-c4cc3ccc4O)[C@H](O)c3ccc(c(Cl)c3)Oc3cc2cc(c3O[C@@H]2O[C@H](CO)[C@@H](O)[C@H](O)[C@H]2O[C@H]2C[C@](C)(N)[C@H](O)[C@H](C)O2)Oc2ccc(cc2Cl)[C@H]1O` [Van, vancomycin, reference compound] showed an MIC [2] of 16 µg/mL (≈ 11 µM), an MIC [3] of 0.5 µg/mL (≈ 0.345 µM) and an MIC [4] of 2 µg/mL (≈ 1.38 µM). The MIC [5] was 128 µg/mL (≈ 88.3 µM), the MIC [6] was 128 µg/mL (≈ 88.3 µM) and the MIC [7] was greater than 128 µg/mL. It also gave an MIC [8] of 1 µg/mL (≈ 0.69 µM), an MIC [9] of 1 µg/mL (≈ 0.69 µM) and an MIC [10] of 2 µg/mL (≈ 1.38 µM). It also gave an MIC ([11]; Staphylococcus aureus) of 2 µg/mL (≈ 1.38 µM), an MIC [12] of 128 µg/mL (≈ 88.3 µM) and an MIC [13] of 128 µg/mL (≈ 88.3 µM).

For `CC[C@H](C)[C@H](NC(=O)CN)C(=O)NCC(=O)N[C@@H](C)C(=O)N[C@H](C(=O)N[C@@H](CC(C)C)C(=O)N[C@@H](CCCCN)C(=O)N[C@H](C(=O)N[C@@H](CC(C)C)C(=O)N[C@H](C(=O)N[C@H](C(=O)NCC(=O)N[C@@H](CC(C)C)C(=O)N1CCC[C@H]1C(=O)N[C@@H](C)C(=O)N[C@@H](CC(C)C)C(=O)N[C@H](C(=O)N[C@@H](CO)C(=O)N[C@@H](Cc1c[nH]c2ccccc12)C(=O)N[C@H](C(=O)N[C@@H](CCCCN)C(=O)N[C@@H](CCCNC(=N)N)C(=O)N[C@@H](CCCCN)C(=O)N[C@@H](CCCNC(=N)N)C(=O)N[C@@H](CCC(N)=O)C(=O)N[C@@H](CCC(N)=O)C(N)=O)[C@@H](C)CC)[C@@H](C)CC)[C@@H](C)O)[C@@H](C)O)C(C)C)C(C)C` [melittin, reference compound], the “MIC S. a 43300” value [11, 17] was 8 µg/mL (≈ 2.81 µM), the MBC (S. aureus ATCC4330; against S. aureus ATCC43300) was 32 µg/mL (≈ 11.2 µM) and the “effect on ROS fluorescence intensity” value (S. aureus ATCC43300 [14]) was “dose-dependently increase the fluorescence intensity”.

With `O=C(O)c1cn(C2CC2)c2cc(N3CCNCC3)c(F)cc2c1=O` [ciprofloxacin, reference compound] the MIC [11, 17] was 0.25 µg/mL (≈ 0.754 µM), the MBC (S. aureus ATCC4330; Staphylococcus aureus, ATCC 4330 / ATCC 43300, against S. aureus ATCC43300, read-out: MBC) was 2 µg/mL (≈ 6.04 µM) and the “effect on ROS fluorescence intensity” value (S. aureus ATCC43300 [14]) was “little change in fluorescence intensity”. The “effect on DNA concentration” value (S. aureus ATCC43300 [15]) was “changed little”.

With `CCn1cc(C(=O)O)c(=O)c2cc(F)c(N3CCNCC3)cc21` [norfloxacin, reference compound] the “fold increase in MIC” value (S. aureus ATCC43300 [16]) was 512 fold.
